Several values for one entry are separate records, joined by “and”; a condition that tells them apart may be missing. Equal entries are not always repeated.
Experiments:
[1] = Radiometabolite analysis of plasma by radio-HPLC during PET; assay type: in vivo, cynomolgus monkey
Experimental: An automated blood sampling system (ABSS) was used to measure the continuous radioactivity for the first 3 min after the radioligand injection. Then, blood sampling was performed manually for the measurement of metabolism and radioactivity at 5, 15, 30, 60, 90, and 120 min after the injection. A reversed-phase radio-HPLC method was used to determine the amount of unchanged ^18F-AZD9272 and its radioactive metabolites in NHP plasma.[35]

[2] = Whole body PET and radiation dosimetry (OLINDA/EXM 1.1); assay type: in vivo, cynomolgus monkey; conditions: for Estimated radiation dose: human estimate, adult male model
Experimental: Two female cynomolgus monkeys (NHP3: 7420 g and NHP4: 6360 g) were used in this study. Anesthesia was induced by intramuscular injection of ketamine hydrochloride (approximately 10 mg/kg) at AFL and maintained by intravenous infusion of ketamine (4 mg/kg/h) and xylazine (0.4 mg/kg/h) with a pump. The body of the NHP was immobilized using a vacuum pad. Body temperature was maintained by using a Bair Hugger system (model 505, Arizant Healthcare, MN) and monitored with an esophageal thermometer. Heart rate, blood pressure, respiratory rate, and oxygen saturation were continuously monitored throughout the experiments. Fluid balance was maintained by continuous infusion of saline.
Whole-body PET scans were conducted using a GE Discovery PET/CT 710 system (GE Healthcare, Waukesha, WI). One low-dose CT scan was performed before intravenous administration of ^18F-AZD9272 for attenuation correction. Then five series of PET acquisitions, each covering five axial fields of view (AFOV), were conducted. The five PET series consisted of two 20 s × 5 AFOV, three 40 s × 5 AFOV, three 80 s × 5 AFOV, three 160 s × 5 AFOV, and eight 240 s × 5 AFOV. The total duration of the whole-body PET measurement was around 4 h. PET images were reconstructed with a 3D ordered-subset expectation maximization (OSEM) algorithm with three iterations and 18 subsets, including the time-of-flight information (VUE Point FX) and the point spread function correction (Sharp IR). A 2D Gaussian filter with 5.5 mm cutoff was used.
ROIs were drawn for the brain, heart, liver, lung, kidney, gall bladder, bone (lumbar vertebrae), urinary bladder, stomach, small intestine, spleen, and pancreas with the help of the CT images for anatomic landmarks. The time–activity curve was expressed as the percentage of the injected dose (%ID) calculated as follows: decay-corrected radioactivity (Bq/cc) × ROI volume (cc)/injected dose (Bq) × 100.
Estimates of the absorbed radiation dose in humans were calculated with OLINDA/EXM 1.1 (Organ Level INternal Dose Assessment Code) software, using the adult male (70 kg) reference model.[36] The fractional uptake in NHP organs was assumed to be equal to the uptake in human organs.

[3] = system: monoamine oxidase-B (MAO-B); set-up: method as in PMID 23541825; conditions: NHP brain; cited from earlier work

## N#Cc1cc(F)cc(-c2nc(-c3ccc([18F])cn3)no2)c1 [^18F-AZD9272, 3-fluoro-5-(3-(5-[^18F]fluoropyridin-2-yl)-1,2,4-oxadiazol-5-yl)benzonitrile]
[1]; 5 min after injection
  Parent compound in plasma: approximately 95%
[1]; 120 min after injection, individual animals (n = 2)
  Percentage of parent radioligand in plasma: 59% and 64%
[2]; LLI wall, NHP3
  Estimated radiation dose: 26.8 μSv/MBq
[2]; LLI wall, NHP4
  Estimated radiation dose: 27.9 μSv/MBq
[2]; LLI wall, mean
  Estimated radiation dose: 27.4 μSv/MBq
[2]; NHP whole body
  Whole body organ uptake (PET): High uptakes were seen in liver and small intestine, followed by brain and kidney
[2]; ULI wall, NHP3
  Estimated radiation dose: 65.7 μSv/MBq
[2]; ULI wall, NHP4
  Estimated radiation dose: 69.4 μSv/MBq
[2]; ULI wall, mean
  Estimated radiation dose: 67.6 μSv/MBq
[2]; adrenals, NHP3
  Estimated radiation dose: 14.6 μSv/MBq
[2]; adrenals, NHP4
  Estimated radiation dose: 14.1 μSv/MBq
[2]; adrenals, mean
  Estimated radiation dose: 14.4 μSv/MBq
[2]; brain, NHP3
  Estimated radiation dose: 13.0 μSv/MBq
[2]; brain, NHP4
  Estimated radiation dose: 17.4 μSv/MBq
[2]; brain, mean
  Estimated radiation dose: 15.2 μSv/MBq
[2]; breasts, NHP3
  Estimated radiation dose: 8.0 μSv/MBq
[2]; breasts, NHP4
  Estimated radiation dose: 7.9 μSv/MBq
[2]; breasts, mean
  Estimated radiation dose: 7.9 μSv/MBq
[2]; effective dose, NHP3
  Estimated radiation dose: 17.4 μSv/MBq
[2]; effective dose, NHP4
  Estimated radiation dose: 17.4 μSv/MBq
[2]; effective dose, mean
  Estimated radiation dose: 17.4 μSv/MBq
[2]; gallbladder wall, NHP3
  Estimated radiation dose: 21.3 μSv/MBq
[2]; gallbladder wall, NHP4
  Estimated radiation dose: 21.1 μSv/MBq
[2]; gallbladder wall, mean
  Estimated radiation dose: 21.2 μSv/MBq
[2]; heart wall, NHP3
  Estimated radiation dose: 17.5 μSv/MBq
[2]; heart wall, NHP4
  Estimated radiation dose: 19.0 μSv/MBq
[2]; heart wall, mean
  Estimated radiation dose: 18.3 μSv/MBq
[2]; highest-dose organ
  Human radiation dose estimate, upper large intestine (ULI) wall: around 0.068 mSv/MBq
[2]; if the limit is 10 mSv for the total radiation exposure
  Radioactivity that can be injected to humans: 570 MBq
[2]; kidneys, NHP3
  Estimated radiation dose: 42.3 μSv/MBq
[2]; kidneys, NHP4
  Estimated radiation dose: 29.6 μSv/MBq
[2]; kidneys, mean
  Estimated radiation dose: 36.0 μSv/MBq
[2]; liver, NHP3
  Estimated radiation dose: 47.0 μSv/MBq
[2]; liver, NHP4
  Estimated radiation dose: 45.7 μSv/MBq
[2]; liver, mean
  Estimated radiation dose: 46.4 μSv/MBq
[2]; lungs, NHP3
  Estimated radiation dose: 12.7 μSv/MBq
[2]; lungs, NHP4
  Estimated radiation dose: 11.8 μSv/MBq
[2]; lungs, mean
  Estimated radiation dose: 12.3 μSv/MBq
[2]; most organs
  Human radiation dose estimate, most organs: 0.01–0.02 mSv/MBq
[2]; muscle, NHP3
  Estimated radiation dose: 10.1 μSv/MBq
[2]; muscle, NHP4
  Estimated radiation dose: 10.0 μSv/MBq
[2]; muscle, mean
  Estimated radiation dose: 10.1 μSv/MBq
[2]; osteogenic cells, NHP3
  Estimated radiation dose: 14.5 μSv/MBq
[2]; osteogenic cells, NHP4
  Estimated radiation dose: 14.5 μSv/MBq
[2]; osteogenic cells, mean
  Estimated radiation dose: 14.5 μSv/MBq
[2]; ovaries, NHP3
  Estimated radiation dose: 18.2 μSv/MBq
[2]; ovaries, NHP4
  Estimated radiation dose: 18.6 μSv/MBq
[2]; ovaries, mean
  Estimated radiation dose: 18.4 μSv/MBq
[2]; pancreas, NHP3
  Estimated radiation dose: 16.4 μSv/MBq
[2]; pancreas, NHP4
  Estimated radiation dose: 15.4 μSv/MBq
[2]; pancreas, mean
  Estimated radiation dose: 15.9 μSv/MBq
[2]; red marrow, NHP3
  Estimated radiation dose: 10.7 μSv/MBq
[2]; red marrow, NHP4
  Estimated radiation dose: 10.7 μSv/MBq
[2]; red marrow, mean
  Estimated radiation dose: 10.7 μSv/MBq
[2]; skin, NHP3
  Estimated radiation dose: 7.4 μSv/MBq
[2]; skin, NHP4
  Estimated radiation dose: 7.4 μSv/MBq
[2]; skin, mean
  Estimated radiation dose: 7.4 μSv/MBq
[2]; small intestine, NHP3
  Estimated radiation dose: 58.9 μSv/MBq
[2]; small intestine, NHP4
  Estimated radiation dose: 62.1 μSv/MBq
[2]; small intestine, mean
  Estimated radiation dose: 60.5 μSv/MBq
[2]; spleen, NHP3
  Estimated radiation dose: 9.6 μSv/MBq
[2]; spleen, NHP4
  Estimated radiation dose: 8.4 μSv/MBq
[2]; spleen, mean
  Estimated radiation dose: 9.0 μSv/MBq
[2]; stomach wall, NHP3
  Estimated radiation dose: 13.2 μSv/MBq
[2]; stomach wall, NHP4
  Estimated radiation dose: 13.1 μSv/MBq
[2]; stomach wall, mean
  Estimated radiation dose: 13.2 μSv/MBq
[2]; testes, NHP3
  Estimated radiation dose: 8.7 μSv/MBq
[2]; testes, NHP4
  Estimated radiation dose: 8.6 μSv/MBq
[2]; testes, mean
  Estimated radiation dose: 8.7 μSv/MBq
[2]; thymus, NHP3
  Estimated radiation dose: 9.7 μSv/MBq
[2]; thymus, NHP4
  Estimated radiation dose: 9.6 μSv/MBq
[2]; thymus, mean
  Estimated radiation dose: 9.6 μSv/MBq
[2]; thyroid, NHP3
  Estimated radiation dose: 9.1 μSv/MBq
[2]; thyroid, NHP4
  Estimated radiation dose: 9.1 μSv/MBq
[2]; thyroid, mean
  Estimated radiation dose: 9.1 μSv/MBq
[2]; total body, NHP3
  Estimated radiation dose: 12.2 μSv/MBq
[2]; total body, NHP4
  Estimated radiation dose: 12.1 μSv/MBq
[2]; total body, mean
  Estimated radiation dose: 12.2 μSv/MBq
[2]; urinary bladder wall, NHP3
  Estimated radiation dose: 11.3 μSv/MBq
[2]; urinary bladder wall, NHP4
  Estimated radiation dose: 11.4 μSv/MBq
[2]; urinary bladder wall, mean
  Estimated radiation dose: 11.4 μSv/MBq
[2]; uterus, NHP3
  Estimated radiation dose: 16.1 μSv/MBq
[2]; uterus, NHP4
  Estimated radiation dose: 16.3 μSv/MBq
[2]; uterus, mean
  Estimated radiation dose: 16.2 μSv/MBq
[3]
  Specific binding inhibited by administration of a MAO-B-selective ligand: approximately 90%

From article PMC7309225, “Synthesis, Biodistribution, and Radiation Dosimetry of a Novel mGluR5 Radioligand: ^18F-AZD9272” (ACS Chemical Neuroscience, 2020)
